According to article PMC9732821, “Neurotrophic Activity and Its Modulation by Zinc Ion of a Dimeric Peptide Mimicking the Brain-Derived Neurotrophic Factor N-Terminal Region” (ACS Chemical Neuroscience, 2022):

Test system: human TrkB
Test: TrkB phosphorylation, immunoprecipitation and western blot in SH-SY5Y cells transfected with hTrkB-EGFP
Assay type: cell-based
Settings: 10 μM peptide, 10 min stimulation, normalized to ctrl; four replicas (peptides); one-way ANOVA with Bonferroni
Excerpt: The possibility of mimicking the function of the full-length BDNF protein by using a linear peptide fragment encompassing the first 12 amino acids of the mature NT N-terminal was already postulated.[31] Here, we named this sequence as m-bdnf (Figure 1A) and performed a systematic comparison between the performance of the full-length human BDNF produced recombinantly in Escherichia coli([32]) and (i) m-bdnf, (ii) a dimeric peptide displaying two copies of the m-bdnf sequence covalently bound by a disulfide bridge (d-bdnf), and (iii) a monomeric peptide displaying the scrambled sequence of m-bdnf (s-bdnf). We first investigated the ability of these peptides to activate the TrkB receptor. To this purpose, we expressed a recombinant GFP fusion of human TrkB (Figure 1A) in SH-SY5Y cells. Then, cells were stimulated with BDNF or the related peptides. […] Then, the same cell-based assays for ERK phosphorylation were used to better elucidate the agonist properties of d-bdnf (Figure 1D). […] Specifically, an EC50 concentration of BDNF (1 nM) or of d-bdnf (10 μM) was used in combination with the increasing concentration of d-bdnf and BDNF, respectively, and the increase of ERK phosphorylation was assessed. […] Of note, we also performed a non-permeabilizing immunofluorescence analysis to quantify the membrane-bound BDNF in differentiated SH-SY5Y cells in the absence or presence of BDNF and d-bdnf (Figure S1C,D). […] The same increment was not observed upon treatment with the d-bdnf peptide, while instead we measured a slight (∼18%) decrease of the signal possibly due to the ability of the peptide to displace endogenous BDNF at the tested dose (10 μM). […]
Figure 1 Activation of the TrkB receptor by BDNF and its mimetic peptide ligands. […] (C) Scatter dot plot of ERK (left) and AKT (right) phosphorylation levels detected in differentiated SH-SY5Y cells, after stimulation with the same treatments as in (B). […] (G) Bar graph of mean ± SD ‘B-1’ values retrieved from N&B analysis for all the different conditions measured. […]

Row | Substance | TrkB phosphorylation (p-Tyr/TrkB band density)
1 | HSDPARRGELSV-NH2 [m-bdnf, linear peptide fragment encompassing the first 12 amino acids of the mature NT N-terminal] | only d-bdnf was able to promote a significant TrkB phosphorylation
2 | HSDPARRGELSVC-C-VSLEGRRAPDSH (disulfide) [d-bdnf] | significant TrkB phosphorylation (p < 0.05)
3 | SRAGPHLRDVSE-NH2 [s-bdnf] | only d-bdnf was able to promote a significant TrkB phosphorylation
